Test results: patent US20260217698A1 (BEYANG THERAPEUTICS CO., LTD., priority 2022, published 2026)
Values after ≈ are worked out from the molar mass of the structure shown.

Assays:
[1] = molecular target: T1, VEGFR3 (Homo sapiens, UniProt P35916); experiment: Kinase inhibition, Mobility Shift Assay/IMAP, VEGFR3; type: biochemical
T1 construct: purchased Invitrogen PV4129
Summary of the method: (§1)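 Substrate conversion (phosphorylated vs non-phosphorylated) read by mobility shift on Caliper EZ Reader II and converted to % inhibition relative to no-enzyme and DMSO controls. IC50 fitted from % inhibition versus log compound concentration.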

[2] = test system: melanin; experiment: Binding capacity of compounds to melanin; type: in vitro ADME, cuttlefish (Sepia officinalis); conditions: cuttlefish (Sepia officinalis), melanin suspension (1 mg/mL); 1 mg/mL melanin in PBS pH 7.4, 2 μM compound, 2 h at 37° C.; read-out: Fu % (percentage of free drug)
Summary of the method: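 Compound (2 μM final) incubated with washed Sepia melanin (1 mg/mL, PBS pH 7.4) 2 h at 37° C with shaking; PBS with 0.1% BSA served as blank. Supernatants quantified by LC-MS/MS; bound fraction Fb derived from melanin versus blank concentration.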

[3] = molecular target: T2, TIE2 (Homo sapiens, UniProt Q02763); experiment: Kinase inhibition, Mobility Shift Assay/IMAP, TIE2; type: biochemical
T2 construct: purchased BPS 40270
T2 sequence (Q02763 23-1124): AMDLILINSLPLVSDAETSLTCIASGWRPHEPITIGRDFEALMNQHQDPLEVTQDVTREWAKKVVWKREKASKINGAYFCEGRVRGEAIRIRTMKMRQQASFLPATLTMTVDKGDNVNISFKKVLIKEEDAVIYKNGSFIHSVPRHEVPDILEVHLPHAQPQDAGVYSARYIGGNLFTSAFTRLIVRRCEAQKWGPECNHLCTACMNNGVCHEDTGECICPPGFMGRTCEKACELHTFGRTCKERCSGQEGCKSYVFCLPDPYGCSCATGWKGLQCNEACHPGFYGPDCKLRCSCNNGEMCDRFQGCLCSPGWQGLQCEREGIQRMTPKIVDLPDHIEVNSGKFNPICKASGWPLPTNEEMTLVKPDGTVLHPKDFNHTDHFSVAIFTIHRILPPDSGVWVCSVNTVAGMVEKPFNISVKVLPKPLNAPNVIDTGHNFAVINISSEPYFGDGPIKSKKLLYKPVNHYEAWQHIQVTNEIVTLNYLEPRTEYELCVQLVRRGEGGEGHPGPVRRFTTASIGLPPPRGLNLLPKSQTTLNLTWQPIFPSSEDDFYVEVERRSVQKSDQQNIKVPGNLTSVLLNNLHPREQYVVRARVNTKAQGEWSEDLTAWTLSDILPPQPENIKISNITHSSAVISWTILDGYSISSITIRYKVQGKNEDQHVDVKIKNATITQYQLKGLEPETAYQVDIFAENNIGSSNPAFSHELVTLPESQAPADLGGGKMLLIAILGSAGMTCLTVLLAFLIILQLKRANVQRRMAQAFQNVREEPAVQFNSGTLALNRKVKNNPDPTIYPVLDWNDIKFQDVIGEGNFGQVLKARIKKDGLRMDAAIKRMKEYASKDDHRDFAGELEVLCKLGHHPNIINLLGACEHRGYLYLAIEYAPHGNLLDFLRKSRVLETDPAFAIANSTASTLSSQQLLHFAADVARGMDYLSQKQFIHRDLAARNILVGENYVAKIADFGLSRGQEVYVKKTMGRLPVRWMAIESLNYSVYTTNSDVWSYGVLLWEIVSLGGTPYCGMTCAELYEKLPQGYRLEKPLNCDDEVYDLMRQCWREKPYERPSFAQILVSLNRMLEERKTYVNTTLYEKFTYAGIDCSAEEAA
Summary of the method: as §1

[4] = molecular target: T3, VEGFR1 (Homo sapiens, UniProt P17948); experiment: Kinase inhibition, Mobility Shift Assay/IMAP, VEGFR1; type: biochemical
T3 construct: purchased Invitrogen PR6731B
T3 sequence (P17948 27-1338): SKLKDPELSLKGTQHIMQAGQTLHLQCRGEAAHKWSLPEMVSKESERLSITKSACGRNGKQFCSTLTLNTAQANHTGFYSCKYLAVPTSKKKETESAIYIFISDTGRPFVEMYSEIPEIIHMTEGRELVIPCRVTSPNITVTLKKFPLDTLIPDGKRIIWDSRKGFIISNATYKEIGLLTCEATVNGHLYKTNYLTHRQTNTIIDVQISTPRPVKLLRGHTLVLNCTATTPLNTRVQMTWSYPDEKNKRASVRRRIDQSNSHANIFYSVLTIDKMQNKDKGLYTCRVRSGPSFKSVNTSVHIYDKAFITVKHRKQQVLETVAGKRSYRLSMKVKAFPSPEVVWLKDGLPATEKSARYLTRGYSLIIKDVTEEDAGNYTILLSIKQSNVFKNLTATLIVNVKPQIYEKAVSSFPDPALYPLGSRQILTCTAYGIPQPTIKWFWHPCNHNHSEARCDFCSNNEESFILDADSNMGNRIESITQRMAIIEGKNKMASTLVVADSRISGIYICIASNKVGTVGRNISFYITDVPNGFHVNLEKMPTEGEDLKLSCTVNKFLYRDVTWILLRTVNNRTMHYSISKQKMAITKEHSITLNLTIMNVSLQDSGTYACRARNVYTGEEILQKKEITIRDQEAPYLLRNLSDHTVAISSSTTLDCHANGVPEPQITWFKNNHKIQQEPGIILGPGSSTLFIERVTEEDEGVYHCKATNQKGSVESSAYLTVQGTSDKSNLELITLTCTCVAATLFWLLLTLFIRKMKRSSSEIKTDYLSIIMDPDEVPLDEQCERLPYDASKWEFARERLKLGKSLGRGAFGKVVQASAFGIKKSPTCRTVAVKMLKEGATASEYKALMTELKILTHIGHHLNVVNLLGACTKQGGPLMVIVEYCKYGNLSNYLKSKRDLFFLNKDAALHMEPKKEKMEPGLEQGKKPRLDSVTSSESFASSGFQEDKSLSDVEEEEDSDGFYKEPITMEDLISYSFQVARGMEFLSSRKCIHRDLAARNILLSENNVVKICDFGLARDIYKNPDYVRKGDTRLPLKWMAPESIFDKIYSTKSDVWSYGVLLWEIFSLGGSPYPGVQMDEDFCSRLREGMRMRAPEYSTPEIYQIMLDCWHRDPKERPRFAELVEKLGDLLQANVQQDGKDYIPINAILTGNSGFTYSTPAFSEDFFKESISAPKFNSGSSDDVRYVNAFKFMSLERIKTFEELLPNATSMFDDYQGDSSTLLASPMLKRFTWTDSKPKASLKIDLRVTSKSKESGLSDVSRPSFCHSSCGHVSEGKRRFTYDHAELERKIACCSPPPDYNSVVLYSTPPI
Summary of the method: as §1

[5] = Solubility test in buffer, LC-MS; type: physicochemical; conditions: aqueous buffer, thermodynamic from solid, room temperature, shaking 8 h, pH not given (method: pH 2.0, 6.5, 7.4)
Summary of the method: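 Compound at 2 mg/mL in buffers of pH 2.0, 6.5 and 7.4, sonicated, shaken 8 h at room temperature, then centrifuged at 13,000 rpm. Supernatant quantified by LC-MS against a 3–5 point calibration.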

T1 sequence (P35916 25-1363): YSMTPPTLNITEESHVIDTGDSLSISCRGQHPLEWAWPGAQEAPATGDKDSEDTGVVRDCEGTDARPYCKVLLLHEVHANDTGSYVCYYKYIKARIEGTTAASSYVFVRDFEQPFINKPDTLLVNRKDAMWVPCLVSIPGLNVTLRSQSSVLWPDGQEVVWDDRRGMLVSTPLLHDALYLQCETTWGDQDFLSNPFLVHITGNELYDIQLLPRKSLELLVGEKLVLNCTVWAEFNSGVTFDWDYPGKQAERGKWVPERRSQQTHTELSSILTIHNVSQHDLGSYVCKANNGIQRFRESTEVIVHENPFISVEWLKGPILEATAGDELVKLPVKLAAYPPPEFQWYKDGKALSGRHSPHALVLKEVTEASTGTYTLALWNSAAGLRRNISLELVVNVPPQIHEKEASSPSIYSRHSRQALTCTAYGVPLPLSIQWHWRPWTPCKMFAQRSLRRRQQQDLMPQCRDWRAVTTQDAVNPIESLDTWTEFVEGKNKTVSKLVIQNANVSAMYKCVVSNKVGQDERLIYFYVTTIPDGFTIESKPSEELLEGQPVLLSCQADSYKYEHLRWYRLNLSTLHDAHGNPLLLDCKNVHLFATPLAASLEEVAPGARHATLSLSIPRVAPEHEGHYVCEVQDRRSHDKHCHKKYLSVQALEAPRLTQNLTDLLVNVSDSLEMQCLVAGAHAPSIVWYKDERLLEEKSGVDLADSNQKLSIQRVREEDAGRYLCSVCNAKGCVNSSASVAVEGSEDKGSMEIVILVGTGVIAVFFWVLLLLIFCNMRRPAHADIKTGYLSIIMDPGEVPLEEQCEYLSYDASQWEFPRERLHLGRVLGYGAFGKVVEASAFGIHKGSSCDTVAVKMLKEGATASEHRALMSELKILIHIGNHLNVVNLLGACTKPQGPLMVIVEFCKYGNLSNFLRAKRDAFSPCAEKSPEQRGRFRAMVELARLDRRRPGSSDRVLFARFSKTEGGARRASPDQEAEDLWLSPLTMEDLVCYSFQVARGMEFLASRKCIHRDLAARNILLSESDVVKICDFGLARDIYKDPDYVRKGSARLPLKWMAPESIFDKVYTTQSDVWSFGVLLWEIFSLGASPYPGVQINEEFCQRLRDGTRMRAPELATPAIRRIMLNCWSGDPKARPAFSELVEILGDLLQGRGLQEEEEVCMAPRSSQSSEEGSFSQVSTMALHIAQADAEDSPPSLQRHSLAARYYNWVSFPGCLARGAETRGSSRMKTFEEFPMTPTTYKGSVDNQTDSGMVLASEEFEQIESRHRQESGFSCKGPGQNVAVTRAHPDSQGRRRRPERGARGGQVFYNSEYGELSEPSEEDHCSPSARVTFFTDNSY

Row | Compound | IC50 [1] [nM] | fraction unbound at 2 h, 2 μM [2] | IC50 [3] [nM] | IC50 [4] [nM] | solubility at 8 h [5] [µg/mL]
1 | NC(=O)c1c(OCc2cc(C(=O)NC3CC3)ccc2F)nsc1NC(=O)NCCCCN1CCCC1 [Compound T087, 3-[[5-(cyclopropylcarbamoyl)-2-fluoro-phenyl]methoxy]-5-(4-pyrrolidin-1-ylbutylcarbamoylamino)isothiazole-4-carboxamide] | 0.8 | 0.0374 | 1420 | 1.11 | –
2 | NC(=O)c1c(OCc2cc3c(cc2F)CCO3)nsc1NC(=O)NCCCCN1CC[C@@H](O)C1 [Compound T091, 3-[(5-fluoro-2,3-dihydrobenzofuran-6-yl)methoxy]-5-[4-[(3R)-3-hydroxypyrrolidin-1-yl]butylcarbamoylamino] isothiazole-4-carboxamide] | 6.72 | 0.0286 | – | 5.87 | –
3 | CN1CCN(CCCNC(=O)Nc2snc(OCc3cc4c(cc3F)CCO4)c2C(N)=O)CC1 [Compound T101, 3-[(5-fluoro-2,3-dihydrobenzofuran-6-yl)methoxy]-5-[3-(4-methylpiperazin-1-yl)propylcarbamoylamino] isothiazole-4-carboxamide] | – | 0.0702 | 163 | – | –
4 | NC(=O)c1c(OCc2cc(C(=O)NC3CC3)ccc2F)nsc1NC(=O)NCCCN1CC[C@H](F)C1 [Compound T116, 3-[[5-(cyclopropylcarbamoyl)-2-fluoro-phenyl]methoxy]-5-[3-[(3S)-3-fluoropyrrolidin-1-yl]propylcarbamoylamino]isothiazole-4-carboxamide] | 4.8 | 0.0376 | 2360 | 1.21 | 1090 (≈ 2.08 mM)
5 | CN1CCN(CCCNC(=O)Nc2snc(OCc3cc(C(=O)NC4CC4)ccc3F)c2C(N)=O)CC1 [Compound T118, 3-[[5-(cyclopropylcarbamoyl)-2-fluoro-phenyl]methoxy]-5-[3-(4-methylpiperazin-1-yl)propylcarbamoylamino]isothiazole-4-carboxamide] | – | 0.111 | – | – | 2050 (≈ 3.85 mM)
6 | NC(=O)c1c(OCc2cc(C(=O)NC3CC3)ccc2Cl)nsc1NC(=O)NCCCCN1CCCC1 [Compound T123, 3-[[2-chloro-5-(cyclopropylcarbamoyl)phenyl]methoxy]-5-(4-pyrrolidin-1-ylbutylcarbamoylamino)isothiazole-4-carboxamide] | – | 0.0298 | 973 | – | –
7 | NC(=O)c1c(OCc2c(F)ccc(C(=O)NC3CC3)c2F)nsc1NC(=O)NCCCCN1CCCC1 [Compound T124, 3-[[3-(cyclopropylcarbamoyl)-2,6-difluoro-phenyl]methoxy]-5-(4-pyrrolidin-1-ylbutylcarbamoylamino)isothiazole-4-carboxamide] | – | 0.0707 | 2890 | – | 1950 (≈ 3.63 mM)
